According to ChEMBL document CHEMBL1131701, “Synthesis and evaluation of potent and selective c-GMP phosphodiesterase inhibitors” (Bioorg Med Chem Lett, 1999):

Key:
[1] = target: Dual specificity calcium/calmodulin-dependent 3',5'-cyclic nucleotide phosphodiesterase 1A (Bos taurus, UniProt P14100); assay: Optimum inhibitory concentration required to inhibit c-GMP specific phosphodiesterase 1 (PDE1) of bovine aorta
[2] = target: T1, Phosphodiesterase 3 (Homo sapiens, UniProt Q14432+Q13370); assay: Optimum inhibitory concentration required to inhibit […] (PDE3); type: protein assay
[3] = target: T2, cGMP-specific 3',5'-cyclic phosphodiesterase (Bos taurus, UniProt Q28156); assay: Optimum inhibitory concentration required to inhibit c-GMP specific Phosphodiesterase 5 (PDE5) of bovine lung
[4] = target: T1, Phosphodiesterase 3; assay: Inhibition of cGMP-inhibited phosphodiesterase 3 (PDE3); type: protein assay
[5] = target: T2, cGMP-specific 3',5'-cyclic phosphodiesterase; assay: Inhibition of c-GMP specific phosphodiesterase PDE5 of bovine lung

Chain of Dual specificity calcium/calmodulin-dependent 3',5'-cyclic nucleotide phosphodiesterase 1A (P14100 whole entry): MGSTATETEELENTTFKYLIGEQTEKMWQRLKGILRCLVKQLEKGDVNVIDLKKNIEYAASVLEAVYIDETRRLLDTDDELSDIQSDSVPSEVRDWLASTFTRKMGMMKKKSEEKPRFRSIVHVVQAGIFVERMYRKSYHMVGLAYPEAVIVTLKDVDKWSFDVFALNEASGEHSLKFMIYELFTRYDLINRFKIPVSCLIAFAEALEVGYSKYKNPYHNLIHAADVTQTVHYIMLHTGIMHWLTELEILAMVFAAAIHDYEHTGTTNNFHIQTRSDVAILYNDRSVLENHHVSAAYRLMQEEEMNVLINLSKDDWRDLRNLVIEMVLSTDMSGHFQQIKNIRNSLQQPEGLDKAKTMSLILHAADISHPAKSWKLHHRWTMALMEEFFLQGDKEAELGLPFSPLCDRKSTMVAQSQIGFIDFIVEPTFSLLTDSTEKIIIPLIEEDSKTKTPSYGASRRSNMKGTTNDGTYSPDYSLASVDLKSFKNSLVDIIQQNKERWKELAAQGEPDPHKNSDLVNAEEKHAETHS

Structure (SMILES) | IC50 [1] [nM] | IC50 [2] [nM] | IC50 [3] [nM] | IC50 [4] [nM] | IC50 [5] [nM]
CCCCc1nc2c([nH]1)N1C(=N[C@@H]3CCC[C@@H]31)N(C)C2=O | 110 | 38000 | 140 |  | 
CCCCCCc1nc2c([nH]1)N1C(=N[C@@H]3CCC[C@@H]31)N(C)C2=O | 36 | 12000 |  |  | 
CCCCCCCCc1nc2c([nH]1)N1C(=N[C@@H]3CCC[C@@H]31)N(C)C2=O | 33 |  |  | 10000 | 14
CCC(CC)c1nc2c([nH]1)N1C(=N[C@@H]3CCC[C@@H]31)N(C)C2=O | 150 | 150000 | 1400 |  | 
CCCCCc1nc2c([nH]1)N1C(=N[C@@H]3CCC[C@@H]31)N(C)C2=O | 31 | 20000 | 40 |  | 
CCCc1nc2c([nH]1)N1C(=N[C@@H]3CCC[C@@H]31)N(C)C2=O | 350 | 80000 |  |  | 
CCCCCCCc1nc2c([nH]1)N1C(=N[C@@H]3CCC[C@@H]31)N(C)C2=O | 160 | 7000 | 30 |  | 
Cc1nc2c([nH]1)C(=O)N(C)C1=N[C@@H]3CCC[C@@H]3N12 | 1250 | > 300000 |  |  | 
CCCC(CCC)c1nc2c([nH]1)N1C(=N[C@@H]3CCC[C@@H]31)N(C)C2=O | 60 | 80000 | 150 |  | 
CCCCCCc1nc2c([nH]1)N1CC(C)(C)N=C1N(C)C2=O | 25 | 28000 | 8 |  | 
CCc1nc2c([nH]1)N1C(=N[C@@H]3CCC[C@@H]31)N(C)C2=O | 295 | 150000 | 1200 |  | 

Results, then the compound that gave them:

IC50 [1] [nM] | IC50 [2] [nM] | IC50 [3] [nM] | IC50 [4] [nM] | IC50 [5] [nM] | Structure (SMILES)
12 | 65000 | 6 |  |  | CC(C)CCCc1nc2c([nH]1)N1C[C@@H](C(C)C)N=C1N(C)C2=O
14 | 15000 |  |  |  | CC(C)CCc1nc2c([nH]1)N1C(=N[C@@H]3CCC[C@@H]31)N(C)C2=O
14 | 15000 | 11 |  |  | CCCCCCc1nc2c([nH]1)N1CC3(CCCC3)N=C1N(C)C2=O
15 | 40000 | 22 |  |  | CC(C)CCc1nc2c([nH]1)N1C[C@@H](C(C)C)N=C1N(C)C2=O
25 | 18000 | 5 |  |  | CCCCCCc1nc2c([nH]1)N1C[C@@H](C(C)C)N=C1N(C)C2=O
6 | 35000 | 10 |  |  | CC(C)CCCc1nc2c([nH]1)N1C(=N[C@@H]3CCC[C@@H]31)N(C)C2=O
